From PubChem BioAssay AID330 (DTP/NCI, 2004) come the findings set out here.

This test concerns P388 leukemia ip, CD2F1 mice, survival T/C. Put plainly: NCI In Vivo Anticancer Drug Screen. Data for tumor model P388 Leukemia (intraperitoneal) in CD2F1 (CDF1) mice. Conditions: endpoint: median survival time, higher = longer survival. The procedure, abridged:
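Mice carrying the transplanted tumor received test compound or vehicle. Survival was recorded in each group, and the value is the treated-group measurement divided by that of the vehicle-treated control group.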

“And” between values parts separate entries of the source, which are not always exact repeats. Identical values can stand only once. Inconclusive results and toxic doses are left out.

In the case of `O=C1C2C3C=CC(C2C(=O)N1CN1CCOCC1)C1C2C(=O)N(CN4CCOCC4)C(=O)C2C31` (configuration not stated), for the setting “dose: 25.0 mg/kg/injection, schedule: Q01DX009 (ip), vehicle: saline with Tween-80”, the T/C was 120 % of control.

Take `COc1cccc2c1C(=O)c1c(O)c3c(c(O)c1C2=O)CC(O)(C(C)=O)CC3OC1CC(NC(=O)C(CCCCN)NC(=O)C2CCCN2)C(O)C(C)O1` (configuration not stated): the T/C was 93 % of control (dose: 2.5 mg/kg/injection, schedule: Q04DX003 (ip), vehicle: water); 98 % of control (dose: 5.0 mg/kg/injection, schedule: Q04DX003 (ip), vehicle: water); 99 % of control and 109 % of control (dose: 10.0 mg/kg/injection, schedule: Q04DX003 (ip), vehicle: water); 110 % of control and 118 % of control (dose: 20.0 mg/kg/injection, schedule: Q04DX003 (ip), vehicle: water); 121 % of control and 123 % of control (dose: 40.0 mg/kg/injection, schedule: Q04DX003 (ip), vehicle: water); 166 % of control (dose: 80.0 mg/kg/injection, schedule: Q04DX003 (ip), vehicle: water).

Turning to `Cc1ccc(N=Cc2ccccc2O)c(Br)c1`, the T/C reads like this: (dose: 50.0 mg/kg/injection, schedule: Q01DX009 (ip), vehicle: Klucel (hydroxypropylcellulose) (HPC)) 88 % of control; (dose: 100.0 mg/kg/injection, schedule: Q01DX009 (ip), vehicle: Klucel (hydroxypropylcellulose) (HPC)) 89 % of control; (dose: 200.0 mg/kg/injection, schedule: Q01DX009 (ip), vehicle: Klucel (hydroxypropylcellulose) (HPC)) 98 % of control.

Turning to `O=C(Nc1ccccc1)Sc1ccc(Cl)cc1`, the T/C reads like this: (dose: 25.0 mg/kg/injection, schedule: Q01DX005 (ip), vehicle: saline with Tween-80) 115 % of control; (dose: 50.0 mg/kg/injection, schedule: Q01DX005 (ip), vehicle: saline with Tween-80) 121 % of control; (dose: 100.0 mg/kg/injection, schedule: Q01DX005 (ip), vehicle: saline with Tween-80) 115 % of control and 123 % of control; (dose: 200.0 mg/kg/injection, schedule: Q01DX005 (ip), vehicle: saline with Tween-80) 124 % of control.

Consider `CC(=O)OCC1OC(Nc2[nH]c(=O)[nH]c(=O)c2C(=O)CCl)C(OC(C)=O)C(OC(C)=O)C1OC(C)=O` (configuration not stated), for which the T/C is 121 % of control (dose: 100.0 mg/kg/injection, schedule: Q04DX002 (ip), vehicle: saline with Tween-80); 111 % of control (dose: 200.0 mg/kg/injection, schedule: Q04DX002 (ip), vehicle: saline with Tween-80); 99 % of control (dose: 400.0 mg/kg/injection, schedule: Q04DX002 (ip), vehicle: saline with Tween-80).
